Patent publication EP1039902B1, “INHIBITORS OF GAP JUNCTION COMMUNICATION” (THE SCRIPPS RESEARCH INSTITUTE, priority 1997, dated 1999)
Entries after “also recorded” stand apart in the source; their conditions may differ. Read-outs that look alike come from different tables or passages of the source.

Experiments:
astrocyte = settings: cited from earlier work
[1] = test system: rat glial cell gap junction; assay: Gap junction dye coupling assay (Lucifer yellow dye transfer; microinjection or scrape loading); format: cell-based; settings: for potency of gap junction inhibition relative to oleamide: comparison in words; for reversibility of gap junction inhibition: removal of media containing the agent, replacement with fresh media
Description: (§1) Rat glial cells (Suter et al., 1987) obtained from Dr. Trosko's laboratory were cultured in standard plastic tissue cultureware in Richter's Improved Minimal Essential Medium (Irvine Scientific, Santa Ana, CA), supplemented with 10% fetal calf serum and 50 µg/ml gentamicin sulfate, and incubated in a humidified atmosphere of 95% air/5% CO2 at 37°C. The cells were passaged by trypsinization and used at passages 4-8. BHK (baby hamster kidney) cells that were stably transfected with a β1 connexin cDNA (Kumar et al., 1995) were cultured in DMEM medium supplemented with 5% fetal calf serum and 50 µg/ml gentamicin sulfate, and incubated in a humidified atmosphere of 95% air/5% CO2 at 37° C. In order to induce β1 connexin expression in the BHK cells, 100 µM zinc acetate was added to culture medium for 8-18 hours when the cell culture was about 90% confluent.
(§2) Gap junctional communication in glial cell and BHK/β1 cell cultures was assayed by microinjection of 5% Lucifer yellow CH dye in 0.1 M LiCl solution, and quantitated by determining the number of directly adjacent, neighboring cells that received dye (dye-coupling). Micropipettes were loaded with the dye solution by backfilling. Cells were visualized using a Nikon Diaphot inverted phase contrast/ epifluorescent microscope, and impaled with dye-filled micropipettes using an Eppendorf microinjector (model 5246). Five minutes after dye-injection, the transfer of dye to directly adjacent cells was determined using epifluorescent illumination. For each treatment condition, ten cells were microinjected in each of three dishes, the total number of dye-coupled neighboring cells was calculated and compared to determine the % dye-coupling. For scrape loading measurements, Lucifer yellow CH (0.05% dye in PBS) was loaded intracellularly by cutting or scraping cells in the monolayer with a sharp knife. The dye solution was left in the dish for 90 seconds, then the solution was discarded, and the dish subsequently washed with PBS. The cells were examined for dye transfer with an inverted epifluorescence microscope, and the degree of communication was assessed by determining the extent of Lucifer yellow transfer into contiguous cells.

astrocyte calcium waves = settings: mechanical stimulation or local glutamate application; cited from earlier work
[2] = biological target: T1, fatty acid amide hydrolase (Rattus norvegicus, UniProt P97612); assay: Inhibition of fatty acid amide hydrolase; format: biochemical
T1 sequence (P97612 1-579): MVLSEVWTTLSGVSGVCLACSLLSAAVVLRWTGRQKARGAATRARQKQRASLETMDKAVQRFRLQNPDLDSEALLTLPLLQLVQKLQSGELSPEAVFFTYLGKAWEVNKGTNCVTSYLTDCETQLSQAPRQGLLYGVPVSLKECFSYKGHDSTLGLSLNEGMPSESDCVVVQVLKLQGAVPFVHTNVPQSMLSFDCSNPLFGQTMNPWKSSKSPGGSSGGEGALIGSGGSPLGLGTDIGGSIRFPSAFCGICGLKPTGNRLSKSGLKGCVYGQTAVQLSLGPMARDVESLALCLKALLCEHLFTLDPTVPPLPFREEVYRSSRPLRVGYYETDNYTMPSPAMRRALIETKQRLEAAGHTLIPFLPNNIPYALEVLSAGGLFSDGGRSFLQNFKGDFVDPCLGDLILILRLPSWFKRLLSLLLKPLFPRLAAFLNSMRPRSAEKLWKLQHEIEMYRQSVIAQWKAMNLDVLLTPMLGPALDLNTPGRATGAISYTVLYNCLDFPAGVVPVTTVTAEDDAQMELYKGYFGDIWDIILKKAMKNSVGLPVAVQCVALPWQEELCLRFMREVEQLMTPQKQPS

rat glial cells [3] = assay: Gap junction electrical coupling assay (double whole cell patch recording); format: cell-based
Description: Junctional conductance was measured using double whole cell patch recording performed on pairs of rat glial cells as described (Miller et al., (1992) J Mem. Biol. 128, 91-102) with a pipette solution of (in […]): Kaspartate 160, EGTA 10, CaCl2 2, HEPES 10 (pH 7.2), ATP 4. The external solution contained (in mM): NaCl 160, KCl 4.5, CaCl2 2, MgCl2 1, HEPES 10, pH 7.4. Both cells were held at -40 mV and pulses to -20 mV were alternately applied to each cell. Holding currents were subtracted in the records shown. Cells that were examined were generally in contact with other cells. The electrical conductance was calculated as the junctional current divided by 20 mV. All dye-coupling and conductance studies were performed at room temperature.

BHK/β1 cells = assay: Gap junction dye transfer between β1 connexin-transfected BHK cells; format: cell-based, baby hamster
Description: as §1, §2

rat glial cells [4] = assay: Calcium wave propagation (Fluo-3, mechanical stimulation); format: cell-based
Description: Rat glial cells were loaded with 5 µM Fluo-3/AM (Calbiochem) in Hank's balanced salt solution containing 25 mM HEPES buffer (HBSS/HEPES) for 1 hour, at which point the loading buffer was exchanged for new HBSS/HEPES buffer. The cell cultures were then left at room temperature for at least 30 minutes. Mechanical stimulation of a single cell was performed as follows: a glass micropipette (tip diameter of approximately 0.5 µm) was micro-manipulated downward on to a single cell causing a transient deformation of the cell membrane. The calcium image was then examined with an inverted fluorescence microscope, and photographed with a digital fluorescence microscope (excitation = 506 nm, emmision = 526 nm). The degree of calcium wave propagation was quantitated by counting at different time points the number of transmitting cells in one linear direction away from the stimulated cell. Junctional dye transfer rates were simultaneously examined by microinjection of Lucifer yellow CH in the same dishes; the methods for dye transfer assay was described in assay procedures, gap junction dye coupling assays. For calcium wave and dye transfer studies, the drug was preincubated with the glial cells for 10 minutes, and the drug was left in the experimental solution throughout the examination. All measurements were performed at room temperature.

[5] = test system: mammalian myocardial cells; assay: Gap junctional communication between myocardial cells (preliminary analysis); format: cell-based; settings: unpublished observations
[6] = animals, ip or iv injection; cited from earlier work
α1 connexin = assay: Immunoblotting of α1 connexin phosphorylation isoforms; format: cell-based, rat; settings: for α1 connexin phosphorylation profile (P2 isoform): 50 µM, 4 hours
Description: Plasma membrane fractions containing gap junctions were obtained after hypotonic alkali extraction of the glial cells. The extracted protein was dissolved in 2% SDS and the total protein was determined using the Bio-Rad DC Protein Assay kit (Bio-Rad Corp.). 10 µg of protein was electrophoresed by 10% SDS-PAGE, and subsequently blotted electrophoretically on to Immobilon-P membranes (Millipore Corp.). Gap junction protein was detected using anti-α1 connexin polyclonal rabbit antibodies, and the HRP/Chemiluminescence detection kit (Amersham Corp.) following the manufacturer's instructions.

[7] = test system: Chinese hamster V79 cells; settings: cited from earlier work
rat cardiac myocytes = settings: cited from earlier work
[8] = test system: rat liver epithelial cells; settings: cited from earlier work
[9] = Induction of physiological sleep; format: in vivo; settings: rats
striatal astrocytes = settings: cited from earlier work
[10] = result in words, concentration not stated at the place

For `CCCCCCCC/C=C\CCCCCCCC(=O)NCCO` [oleyl ethanolamide], the “gap junction-mediated dye transfer” value (astrocyte) is given as “inhibit gap junction-mediated dye transfer”, the “inhibition of gap junction-mediated dye transfer” value ([1]; 50 µM) is given as “effective inhibitors” and the “inhibition of gap junction-mediated dye transfer” value ([1]; 50 µM, listed as Oleyl ethanolamide) is given as “significant inhibitors”. The “potency of gap junction inhibition relative to oleamide” value [1] was “less potent than oleamide”, the “potency of gap junction inhibition relative to oleamide” value ([1]; listed as Oleyl ethanolamide) was “less potent than oleamide at lower doses” and the “propagation of astrocyte calcium waves” value (astrocyte calcium waves) was “block the propagation of astrocyte calcium waves”.
For `CCCCCCCC/C=C\CCCCCCCC(=O)C(F)(F)F` [CF3], the Ki [2] was 1 nM, the “potency of gap junction inhibition relative to oleamide” value [1] was “significantly more potent than oleamide” and the “reversibility of gap junction inhibition” value [1] was “reversible effect”.
For `CCCCC/C=C\C/C=C\C/C=C\C/C=C\CCCC(=O)NCCO` [anandamide, reference compound], the “gap junction-mediated dye transfer” value (astrocyte) is listed as “inhibit gap junction-mediated dye transfer”, the electrical coupling (rat glial cells [3]; concentration not given) is listed as “selectively inhibiting gap junction communication” and the “effect on dye transfer” value (BHK/β1 cells; concentration not given) is listed as “inhibitory effects”. The “inhibition of gap junction-mediated dye transfer” value ([1]; 50 µM) was “effective inhibitors”, the “potency of gap junction inhibition relative to oleamide” value [1] was “blocked dye transfer at doses comparable to oleamide” and the “inhibition of gap junction-mediated dye transfer” value [1, 10] was “selectively inhibiting gap junction communication”. The calcium wave transmission (rat glial cells [4]; concentration not given) was “without affecting calcium wave transmission” and the “propagation of astrocyte calcium waves” value (astrocyte calcium waves) was “block the propagation of astrocyte calcium waves”.
In the case of `CCCCCCCC/C=C\CCCCCCCC(N)=O` [oleamide, cis-9-octadecenamide], the “sensitivity of gap junctional communication to the inhibitory action” value [5] is listed as “not as sensitive”, the “induction of physiological sleep” value [6] is listed as “induce physiological sleep” and the junctional electrical coupling (rat glial cells [3]; 50 µM) is listed as “completely blocked; also recorded: completely uncoupled”. For the same compound, the “residual junctional conductance (upper limit)” value (rat glial cells [3]; 50 µM) was “less than 50 pS”, the mean junctional conductance (rat glial cells [3]; 50 µM, n=5) was 0.5 ± 0.7 nS and the “effect on dye transfer” value (BHK/β1 cells; 50 µM for 10 min) was “no dye transfer”. For the same compound, the “effect on dye transfer” value (BHK/β1 cells; 50 µM for 10 min, listed as Oleamide) was “rapidly and completely block dye transfer”, the “effect on dye transfer” value (BHK/β1 cells; 50 µM, 4 hours of treatment) was “completely blocked dye transfer” and the dye transfer (BHK/β1 cells; 50 µM, 4 hours of treatment, zinc induced sample) was 0.31 ± 0.24%. The “α1 connexin phosphorylation profile (P2 isoform)” value (α1 connexin) was “dramatic loss of the P2 isoform”, the “reversibility of the effect on the α1 phosphorylation profile” value (α1 connexin; removal of oleamide, normal culture media for 4 hours) was “proved reversible” and the “inhibition of glial cell dye transfer” value ([1]; 20 µM, preincubation 4 h) was “significantly inhibited”. For the same compound, the “block of intercellular dye transfer, microinjected Lucifer yellow” value ([1]; 50 µM for 10 min) was “completely blocked intercellular dye transfer”, the “inhibition of dye transfer” value ([1]; 50 µM, 4 h prior to injection of Lucifer yellow (dose-response)) was “complete inhibition” and the “recovery of dye transfer after removal of oleamide” value ([1]; 50 µM, then fresh media without oleamide) was “Complete recovery of dye transfer to control levels was observed within one hour”. For the same compound, the inhibition at 20 µM ([1]; Rattus norvegicus, Glial cell, read-out: inhibition of dye transfer) was roughly 50%, the “restoration of dye-coupling under continual exposure” value ([1]; continually exposed for up to 24 h) was “no restoration of dye-coupling” and the “time for junctional communication to recover to control levels after removal of oleamide” value ([1]; culture media changed) was no more than 1 h. For the same compound, the “inhibition of gap junction-mediated dye transfer” value [1, 10] was “most potent inhibitor”, the “dye transfer after scrape loading with Lucifer yellow” value ([1]; scrape loaded cells, pretreatment with oleamide) was “fully abrogated; also recorded: no dye spread to adjacent cells” and the “mechanically-stimulated or glutamate-induced calcium wave propagation” value (rat glial cells [4]) was “no inhibitory effect”. For the same compound, the “mechanically-induced calcium wave propagation” value (rat glial cells [4]; 50 µM, preincubation from 10 minutes to 4 hours) was “no impact; also recorded: indistinguishable manner from control cell populations”.
In the case of `CCCCCCCC/C=C\CCCCCCCC(=O)OCC(CO)OC(C)=O` (racemic) [1-oleoyl-2-acetylglycerol, reference compound], the “inhibition of gap junction-mediated dye transfer” value [1, 10] is listed as “not inhibitors” and the gap junction inhibition [7] is listed as “gap junction inhibition”.
With `CCCCCCCC/C=C\CCCCCCCC(=O)O` [Oleic acid, reference compound] the “effect on dye transfer” value (BHK/β1 cells; 50 µM, 4 hours of treatment) was “no effect”, the “effect on dye transfer” value (BHK/β1 cells; concentration not given) was “no effect” and the “α1 connexin phosphorylation profile (P2 isoform)” value (α1 connexin) was “No change”. The “inhibition of gap junction-mediated dye transfer” value [1, 10] was “inactive; also recorded: no effect”, the “inhibition of gap junction-mediated dye transfer” value ([1]; result in words, concentration not stated at the place, listed as oleic acid) was “no effect” and the gap junction inhibition (rat cardiac myocytes) was “inhibit the gap junction”. The gap junction inhibition (rat cardiac myocytes; listed as oleic acid) was “inhibit gap junction communication”.
With `CCCCCCCC/C=C\CCCCCCCC=O` [oleyl aldehyde] the Ki [2] was 190 nM, the “potency of gap junction inhibition relative to oleamide” value [1] was “nearly equipotent with oleamide” and the “reversibility of gap junction inhibition” value [1] was “reversible effect”. For the same compound, the “inhibition of gap junction-mediated dye transfer” value [1, 10] was “surprisingly effective”.
In the case of `CC/C=C\C/C=C\C/C=C\CCCCCCCC(=O)O` [α-linolenic acid], the gap junction inhibition [8] is listed as “inhibit the gap junction”.
With `CCCCCCCC/C=C\CCCCCCCCCCCC(N)=O` [erucamide, Erucamide] the “induction of physiological sleep” value [9] was “does not induce physiological sleep” and the “inhibition of gap junction-mediated dye transfer” value [1, 10] was “not an inhibitor”.
For `CCCCC/C=C\C/C=C\C/C=C\C/C=C\CCCC(=O)O` [arachidonic acid], the gap junction inhibition (striatal astrocytes) is given as “inhibit the gap junction”.
